Results taken from patent US12497365B2, “4-pyridinyl formamide compound or derivative thereof, preparation method therefor, herbicidal composition and use thereof” (Qingdao Kingagroot Chemical Compound Co., Ltd., priority 2019, dated 2025).

Tests used:
Test in all cases: Weeding effect in post-emergence stage
Type in all cases: in vivo
Conditions in all cases: active ingredient 2000 g/ha, 3 weeks after application, fresh weight control rate
Abutilon theophrasti = tested on: Abutilon theophrasti
Outline: (§1)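 Greenhouse post-emergence test: 2-3 leaf plants sprayed at 125-2000 g/ha, then fresh weight control rate scored at 3 weeks.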

[1] = tested on: Amaranthus retroflexus L.
Outline: as §1

Chenopodium album = tested on: Chenopodium album
Outline: as §1

Descurainia sophia = tested on: Descurainia sophia
Outline: as §1

Row | Structure (SMILES) | Weeding effect, activity level (growth control rate), Abutilon theophrasti (Abutilon theophrasti) | Weeding effect, activity level (growth control rate), Amaranthus retroflexus L. [1] | Weeding effect, activity level (growth control rate), Chenopodium album (Chenopodium album) | Weeding effect, activity level (growth control rate), Descurainia sophia (Descurainia sophia)
1 | COc1ncc(-c2nccc(C(=O)Nc3nnnn3C)c2Cl)cn1 [Compound 1-161] | 5 (Level 5: growth control rate is above 85%) | 5 (Level 5: growth control rate is above 85%) | 5 (Level 5: growth control rate is above 85%) | 5 (Level 5: growth control rate is above 85%)
2 | Cn1nnnc1NC(=O)c1ccnc(-c2ccc(F)cn2)c1Cl [Compound 1-123] | 5 (Level 5: growth control rate is above 85%) | 5 (Level 5: growth control rate is above 85%) | 5 (Level 5: growth control rate is above 85%) | 5 (Level 5: growth control rate is above 85%)
3 | CSc1c(C(=O)Nc2nnnn2C)ccnc1-c1ccc(F)cc1 [Compound 1-203] | 5 (Level 5: growth control rate is above 85%) | 5 (Level 5: growth control rate is above 85%) | 5 (Level 5: growth control rate is above 85%) | 5 (Level 5: growth control rate is above 85%)
4 | Cn1nnnc1NC(=O)c1ccnc(-c2ccc3c(c2)sc2ccccc23)c1Cl [Compound 1-118] | 5 (Level 5: growth control rate is above 85%) | 5 (Level 5: growth control rate is above 85%) | 5 (Level 5: growth control rate is above 85%) | 5 (Level 5: growth control rate is above 85%)
5 | CCc1c(C(=O)Nc2nnnn2C)ccnc1-c1ccc(F)cc1 [Compound 1-210] | 5 (Level 5: growth control rate is above 85%) | 5 (Level 5: growth control rate is above 85%) | 5 (Level 5: growth control rate is above 85%) | 5 (Level 5: growth control rate is above 85%)
6 | Cn1nnnc1NC(=O)c1ccnc(-c2cccs2)c1Cl [Compound 1-186] | 5 (Level 5: growth control rate is above 85%) | 5 (Level 5: growth control rate is above 85%) | 5 (Level 5: growth control rate is above 85%) | 5 (Level 5: growth control rate is above 85%)
7 | O=C(Nc1nnc(C2CC2)o1)c1ccnc(-c2ccc(F)cc2)c1Cl [Compound 1-1257] | 5 (Level 5: growth control rate is above 85%) | 5 (Level 5: growth control rate is above 85%) | 5 (Level 5: growth control rate is above 85%) | 5 (Level 5: growth control rate is above 85%)
8 | CCc1ccc(-c2ccc(-c3nccc(C(=O)Nc4nnnn4C)c3Cl)cc2)cc1 [Compound 1-54] | 5 (Level 5: growth control rate is above 85%) | 5 (Level 5: growth control rate is above 85%) | 5 (Level 5: growth control rate is above 85%) | 5 (Level 5: growth control rate is above 85%)
9 | Cn1nnnc1NC(=O)c1ccnc(-c2ccccn2)c1Cl [Compound 1-119] | 5 (Level 5: growth control rate is above 85%) | 5 (Level 5: growth control rate is above 85%) | 5 (Level 5: growth control rate is above 85%) | 5 (Level 5: growth control rate is above 85%)
10 | Cn1nnnc1NC(=O)c1ccnc(OCc2ccccc2)c1Cl [Compound 1-2064] | 5 (Level 5: growth control rate is above 85%) | 5 (Level 5: growth control rate is above 85%) | 5 (Level 5: growth control rate is above 85%) | 5 (Level 5: growth control rate is above 85%)
11 | Cn1nnnc1NC(=O)c1ccnc(-c2ccc(F)cc2Cl)c1Cl [Compound 1-94] | 5 (Level 5: growth control rate is above 85%) | 5 (Level 5: growth control rate is above 85%) | 5 (Level 5: growth control rate is above 85%) | 5 (Level 5: growth control rate is above 85%)
12 | Cn1nnnc1NC(=O)c1ccnc(-c2ccc(-c3ccccc3)cc2)c1Cl [Compound 1-53] | 5 (Level 5: growth control rate is above 85%) | 5 (Level 5: growth control rate is above 85%) | 5 (Level 5: growth control rate is above 85%) | 5 (Level 5: growth control rate is above 85%)
13 | Cn1nnnc1NC(=O)c1ccnc(-c2cccc(CO)c2)c1Cl [Compound 1-36] | 5 (Level 5: growth control rate is above 85%) | 5 (Level 5: growth control rate is above 85%) | 5 (Level 5: growth control rate is above 85%) | 5 (Level 5: growth control rate is above 85%)
14 | Cn1nnnc1NC(=O)c1ccnc(-c2ccccc2OC(F)(F)F)c1Cl [Compound 1-31] | 5 (Level 5: growth control rate is above 85%) | 5 (Level 5: growth control rate is above 85%) | 5 (Level 5: growth control rate is above 85%) | 5 (Level 5: growth control rate is above 85%)
15 | Cn1nnnc1NC(=O)c1ccnc(-c2ccco2)c1Cl [Compound 1-184] | 5 (Level 5: growth control rate is above 85%) | 5 (Level 5: growth control rate is above 85%) | 5 (Level 5: growth control rate is above 85%) | 5 (Level 5: growth control rate is above 85%)
16 | Cc1ccncc1-c1nccc(C(=O)Nc2nnnn2C)c1Cl [Compound 1-125] | 5 (Level 5: growth control rate is above 85%) | 5 (Level 5: growth control rate is above 85%) | 5 (Level 5: growth control rate is above 85%) | 5 (Level 5: growth control rate is above 85%)
